Tests used:
Rattus norvegicus [1] = species: Rattus norvegicus; assay: Effective concentration of compound against intracellular calcium mobilization in rat; type: functional
Rattus norvegicus [2] = species: Rattus norvegicus; assay: Emax value against intracellular calcium mobilization in rat; type: functional
[3] = target: T1, Kappa-type opioid receptor (Rattus norvegicus, UniProt P34975); assay: biochemical; type: cell-based, HEK293
Description: Inhibition of [3H]U-69593 binding to rat opioid receptor kappa 1 expressed in HEK 293 cells

[4] = target: T1, Kappa-type opioid receptor; assay: Inhibition of [3H]diprenorphine binding to rat opioid receptor kappa 1 expressed in HEK 293 cells; type: cell-based, HEK293

T1 sequence (P34975 whole entry): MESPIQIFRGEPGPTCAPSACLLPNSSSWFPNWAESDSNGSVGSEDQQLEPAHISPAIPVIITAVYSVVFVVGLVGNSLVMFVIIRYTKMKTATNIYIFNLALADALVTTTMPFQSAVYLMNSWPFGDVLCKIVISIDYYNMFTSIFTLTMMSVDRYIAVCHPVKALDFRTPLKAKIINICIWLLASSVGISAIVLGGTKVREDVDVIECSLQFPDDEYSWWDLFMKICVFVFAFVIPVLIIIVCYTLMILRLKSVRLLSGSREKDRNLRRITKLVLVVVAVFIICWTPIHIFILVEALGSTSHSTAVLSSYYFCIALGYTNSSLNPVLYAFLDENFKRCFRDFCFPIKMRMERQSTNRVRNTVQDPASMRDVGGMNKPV

Structure (SMILES)	EC50 (Rattus norvegicus [1])	Emax (Rattus norvegicus [2])	Ki [3]	Ki [4]
COC(=O)[C@@H]1C[C@H](OC(C)=O)C[C@H]2[C@@]1(C)CC[C@H]1C(=O)O[C@H](c3ccoc3)C[C@]21C	141 nM	122%	18 nM	–
COC(=O)[C@@H]1C[C@H](OC(C)=O)C(=O)[C@H]2[C@@]1(C)CC[C@H]1C(=O)O[C@H](c3ccoc3)C[C@]21C [SALVINORIN A]	46 nM	100%	–	–
COC(=O)[C@@H]1C[C@H](OC(C)=O)C(=O)[C@H]2[C@@]1(C)CCC1=CO[C@H](c3ccoc3)C[C@@]12C	223 nM	103%	6 nM	–
CC(=O)O[C@H]1C[C@@H](CO)[C@]2(C)CC[C@H]3C(=O)O[C@H](c4ccoc4)C[C@]3(C)[C@H]2C1=O	> 10000 nM	–	347 nM	–
COC(=O)[C@@H]1C[C@H](OC(C)=O)C(=O)[C@@H]2[C@@]3(C)C[C@@H](c4ccoc4)OC[C@@H]3CC[C@]21C	223 nM	103%	6 nM	–
COC(=O)C1=C[C@H](O)[C@H](OC(C)=O)[C@@H]2[C@@]3(C)C[C@@H](c4ccoc4)OC(=O)[C@@H]3CC[C@@]12C	–	–	> 10000 nM	–
COC(=O)[C@@H]1C[C@H](OC=O)C(=O)[C@H]2[C@@]1(C)CC[C@H]1C(=O)O[C@H](c3ccoc3)C[C@]21C	315 nM	108%	18 nM	–
COC(=O)[C@@H]1C[C@H](OC(C)=O)[C@H](OC(C)=O)[C@H]2[C@@]1(C)CC[C@H]1C(=O)O[C@H](c3ccoc3)C[C@]21C	–	–	> 10000 nM	–
COC(=O)[C@@H]1C[C@H](OC(C)=O)C(=O)[C@H]2[C@@]1(C)CC[C@H]1C(=O)O[C@H](C3CCOC3)C[C@]21C (some centres undefined)	126 nM	108%	156 nM	–
COC(=O)C1=C[C@H](OC(C)=O)[C@H](O)[C@@H]2[C@@]3(C)C[C@@H](c4ccoc4)OC(=O)[C@@H]3CC[C@@]12C	–	–	–	> 10000 nM
COC(=O)[C@@H]1C[C@H](OC(C)=O)C(=O)[C@H]2[C@@]1(C)CC[C@H]1C(O)O[C@H](c3ccoc3)C[C@]21C (some centres undefined)	78 nM	107%	59 nM	–
COC(=O)C1=C[C@H](OC(C)=O)[C@H](OC(C)=O)[C@@H]2[C@@]3(C)C[C@@H](c4ccoc4)OC(=O)[C@@H]3CC[C@@]12C	–	–	1020 nM	–
COC(=O)[C@@H]1C[C@H](OC(C)=O)[C@H](O)[C@H]2[C@@]1(C)CC[C@H]1C(=O)O[C@H](c3ccoc3)C[C@]21C [1-ALPHA-HYDROXYSALVINORIN A]	–	–	1130 nM	–
COC(=O)[C@@H]1C[C@H](OC(C)=O)C(=O)[C@@H]2[C@@]3(C)C[C@@H](c4ccoc4)OC(=O)[C@H]3CC[C@]21C [SALVINORIN A (ESTER)]	244 nM	78%	–	–

From ChEMBL document CHEMBL1141168, “Studies toward the pharmacophore of salvinorin A, a potent kappa opioid receptor agonist” (J Med Chem, 2005)
